Active and inactive are the calls of the source. The rule behind the calls is not given here.
Tests used:
[1] = Inhibition of classical complement pathway activation at 6.6 uM assessed as complement modulation test
[2] = Inhibition of classical complement pathway activation at 4 uM assessed as complement modulation test
[3] = Inhibition of alternative complement pathway activation by complement modulation test
[4] = Inhibition of classical complement pathway activation at 4 uM in presence of beta glucosidase by complement modulation test
[5] = Inhibition of classical complement pathway activation by complement modulation test

Row | Structure (SMILES) | inhibition [1] [%] | inhibition [2] [%] | Activity [3] | inhibition [4] [%] | IC50 [5] [µM]
1 | COC(=O)C1=CO[C@@H](O)[C@@H]2C(CO)=CC[C@H]12 | 75.3 | – | – | – | –
2 | COC(=O)C1=CO[C@@H](O[C@@H]2O[C@H](CO)[C@@H](O)[C@H](O)[C@H]2O)[C@@H]2C(CO)=CC[C@H]12 | – | 23 | – | – | –
3 | COC(=O)C1=CO[C@H](O[C@@H]2O[C@H](CO)[C@@H](O)[C@H](O)[C@H]2O)[C@H]2[C@@H]1[C@@H]1O[C@@H]1[C@@]21C=C(C(O)c2ccc(O)c(OC)c2)C(=O)O1 (stereo partly specified) | – | – | inactive | – | –
4 | O=C(O)C1=CO[C@@H](O[C@@H]2O[C@H](CO)[C@@H](O)[C@H](O)[C@H]2O)[C@@H]2C(CO)=CC[C@H]12 | – | 14.3 | – | 87.3 | –
5 | OCC1=C[C@@H](O)[C@@H]2C=CO[C@@H](O[C@@H]3O[C@H](CO)[C@@H](O)[C@H](O)[C@H]3O)[C@H]12 | – | 21.7 | – | 89.3 | –
6 | COC(=O)C1=CO[C@H](O[C@@H]2O[C@H](COC(C)=O)[C@@H](O)[C@H](O)[C@H]2O)[C@H]2[C@@H]1C=C[C@@]21C=C(C(O)c2ccc(O)cc2)C(=O)O1 (stereo partly specified) [ACETYLGAERTNEROSIDE] | – | – | inactive | – | 71
7 | COC(=O)C1=CO[C@H](O[C@@H]2O[C@H](CO)[C@@H](O)[C@H](O)[C@H]2O)[C@H]2[C@@H]1C=C[C@@]21C=C(C(=O)c2ccc(O)cc2)C(=O)O1 [DEHYDROGAERTNEROSIDE] | – | – | inactive | – | > 400
8 | COC(=O)C1=CO[C@@H](O[C@@H]2O[C@H](CO)[C@@H](O)[C@H](O)[C@H]2O)[C@H]2[C@@H]1C=C[C@@]21C=C(C(=O)c2ccc(O)c(OC)c2)C(=O)O1 [DEHYDROMETHOXYGAERTNEROSIDE] | – | – | inactive | – | > 400
9 | COC(=O)C1=CO[C@H](O[C@@H]2O[C@H](CO)[C@@H](O)[C@H](O)[C@H]2O)[C@H]2[C@@H]1[C@@H]1O[C@@H]1[C@@]21C=C(C(O)c2ccc(O)cc2)C(=O)O1 (stereo partly specified) [EPOXYGAERTNEROSIDE] | – | – | inactive | – | > 1000
10 | O=C(O)C1=CO[C@H](O[C@@H]2O[C@H](CO)[C@@H](O)[C@H](O)[C@H]2O)[C@H]2[C@@H]1C=C[C@@]21C=C(C(O)c2ccc(O)cc2)C(=O)O1 (stereo partly specified) [GAERTNERIC ACID] | – | – | inactive | – | 69
11 | COC(=O)C1=CO[C@H](O[C@@H]2O[C@H](CO)[C@@H](O)[C@H](O)[C@H]2O)[C@H]2[C@@H]1C=C[C@@]21C=C(C(O)c2ccc(O)cc2)C(=O)O1 (stereo partly specified) [GAERTNEROSIDE] | – | – | inactive | – | 58
12 | COC(=O)C1=CO[C@H](O[C@@H]2O[C@H](CO)[C@@H](O)[C@H](O)[C@H]2O)[C@H]2[C@@H]1C=C[C@@]21C=C(C(O)c2ccc(O)c(OC)c2)C(=O)O1 (stereo partly specified) [METHOXYGAERTNEROSIDE] | – | – | inactive | – | > 1000

Source: ChEMBL document CHEMBL1158890, “Complement-inhibiting iridoids from Morinda morindoides” (J Nat Prod, 2003)
